{"source": "patent US20250319133A1", "about": "“METHODS FOR IMPROVING BONE HEALTH WITH BOVINE MILK EXOSOME-ENRICHED PRODUCTS AND VITAMIN K2” (ABBOTT LABORATORIES, priority 2022, published 2025)", "system": "MC3T3-E1 cells", "assay": "Alizarin Red S (ARS) extracellular mineralization assay, calcium deposits", "type": "cell-based, murine", "settings": "12 days in differentiation medium, 1 μM vitamin K2 and/or 15 μg/ml bovine milk exosomes", "experimental": "Alizarin Red S (ARS) assay is an anthraquinone dye used to visualize and evaluate extracellular calcium deposits in cell culture. In embodiments of the invention, mineralization activity of differentiated osteoblasts are evaluated through ARS assay. To begin the assay, MC3T3-E1 pre-osteoblast cells were grown in MEM (minimum essential medium) culture medium supplemented with 10% v/v FBS (fetal bovine serum), […], 100 units/ml penicillin and 0.1 mg/ml streptomycin in a 5% CO2 and an atmosphere with 95% humidity. For osteogenic differentiation, these pre-osteoblast cells were seeded in 24-well plates at a density of 3×10^4 cells/well in complete medium for 1 day. The medium was then replaced by MEM containing 10% v/v FBS, […], 100 units/ml penicillin, 0.1 mg/ml streptomycin, […], and 50 μg/ml L-ascorbic acid. Specifically, three groups of MC3T3-E1 pre-osteoblast cells were treated. Group 1 was treated with 1 μM vitamin K2. Group 2 was treated with 15 μg/ml bovine milk exosomes. Group 3 was treated with a combination of 1 μM vitamin K2 and 15 μg/ml bovine milk exosomes. Group 4 was included as an untreated control group. In addition to analyzing Runx2 and LC3 molecular markers in Example 2, cell Groups 1-3 as described in Example 2 were treated in the presence of a differentiation medium for 12 days. […]", "data": [{"compound": "CC(C)=CCC/C(C)=C/CC/C(C)=C/CC/C(C)=C/CC1=C(C)C(=O)c2ccccc2C1=O", "note": "[vitamin K2]", "values": [{"measurement": "calcium deposits (extracellular matrix mineralization), ARS micrographs", "result": "abundant calcium deposits"}]}]}
